Experimental data published in US8895761B2, “4-phenylpyrane-3,5-diones, 4-phenylthiopyrane-3,5-diones and 2-phenylcyclohexane-1,3,5-triones as herbicides” (Syngenta Limited, priority 2007, dated 2014).

Legend:
Format in all cases: in vivo
Lolium perenne (LOLPE) [1] = test: Pre-emergence herbicidal glasshouse test, Lolium perenne; settings: 312 h, rate 250 g/ha, evaluated after 13 days, scale 100 = total damage to plant, 0 = no damage
Procedure: (§1) Seeds of a variety of test species were sown in standard soil in pots. After cultivation for one day (pre-emergence) or after 8 days cultivation (post-emergence) under controlled conditions in a glasshouse (at 24/16° C., day/night; 14 hours light; 65% humidity), the plants were sprayed with an aqueous spray solution derived from the formulation of the technical active ingredient in acetone/water (50:50) solution containing 0.5% Tween 20 (polyoxyethelyene sorbitan monolaurate, CAS RN 9005-64-5). The test plants were then grown in a glasshouse under controlled conditions in a glasshouse (at 24/16° C., day/night; 14 hours light; 65% humidity) and watered twice daily. After 13 days for pre and post-emergence, the test was evaluated ([…] to plant; 0=no damage to plant).
(§2) Setaria faberi (SETFA), Lolium perenne (LOLPE), Alopecurus myosuroides (ALOMY), Echinochloa crus-galli (ECHCG) and Avena fatua (AVEFA).

[2] = tested on: Alopecurus myosuroides (ALOMY); test: Pre-emergence herbicidal glasshouse test, Alopecurus myosuroides; settings: Alopecurus myosuroides, 312 h, rate 250 g/ha, evaluated after 13 days, scale 100 = total damage to plant, 0 = no damage
Procedure: as §1, §2

[3] = tested on: Echinochloa crus-galli (ECHCG); test: Pre-emergence herbicidal glasshouse test, Echinochloa crus-galli; settings: Echinochloa crus-galli, 312 h, rate 250 g/ha, evaluated after 13 days, scale 100 = total damage to plant, 0 = no damage
Procedure: as §1, §2

Avena fatua (AVEFA) [4] = test: Pre-emergence herbicidal glasshouse test, Avena fatua; settings: Avena fatua, 312 h, rate 250 g/ha, evaluated after 13 days, scale 100 = total damage to plant, 0 = no damage
Procedure: as §1, §2

Lolium perenne (LOLPE) [5] = test: Post-emergence herbicidal glasshouse test, Lolium perenne; settings: 312 h, rate 250 g/ha, evaluated after 13 days, scale 100 = total damage to plant, 0 = no damage
Procedure: as §1, §2

[6] = tested on: Alopecurus myosuroides (ALOMY); test: Post-emergence herbicidal glasshouse test, Alopecurus myosuroides; settings: Alopecurus myosuroides, 312 h, rate 250 g/ha, evaluated after 13 days, scale 100 = total damage to plant, 0 = no damage
Procedure: as §1, §2

[7] = tested on: Echinochloa crus-galli (ECHCG); test: Post-emergence herbicidal glasshouse test, Echinochloa crus-galli; settings: Echinochloa crus-galli, 312 h, rate 250 g/ha, evaluated after 13 days, scale 100 = total damage to plant, 0 = no damage
Procedure: as §1, §2

Avena fatua (AVEFA) [8] = test: Post-emergence herbicidal glasshouse test, Avena fatua; settings: Avena fatua, 312 h, rate 250 g/ha, evaluated after 13 days, scale 100 = total damage to plant, 0 = no damage
Procedure: as §1, §2

Structure (SMILES) | pest or weed control at 250 g/ha (Lolium perenne (LOLPE) [1]) | pest or weed control at 250 g/ha [2] | pest or weed control at 250 g/ha [3] | pest or weed control at 250 g/ha (Avena fatua (AVEFA) [4]) | pest or weed control at 250 g/ha (Lolium perenne (LOLPE) [5]) | pest or weed control at 250 g/ha [6] | pest or weed control at 250 g/ha [7] | pest or weed control at 250 g/ha (Avena fatua (AVEFA) [8])
CCc1cc(-c2cc(F)cc(Cl)c2)ccc1C1=C(O)C(C)(C)OC(C)(C)C1=O [Compound A-60] | 0% | 0% | 0% | 0% | 70% | 60% | 90% | 70%
CCc1cc(-c2ccc(F)c(OC)c2)ccc1C1=C(O)C(C)(C)OC(C)(C)C1=O [Compound A-78] | 80% | 20% | 0% | 30% | 100% | 80% | 100% | 90%
CCc1cc(-c2ccc(F)c(F)c2F)ccc1C1=C(O)C(C)(COC)OC(C)(C)C1=O (centres unmarked) [Compound A-117] | 60% | 70% | 90% | 40% | 80% | 90% | 100% | 80%
Cc1cc(-c2cc(Cl)cc(Cl)c2)cc(C)c1C1=C(O)[C@@]2(C)CC[C@H](O2)C1=O [Compound A-54] | 0% | 0% | 0% | 0% | 40% | 40% | 80% | 30%
CCc1cc(-c2ccc(F)cc2F)ccc1C1=C(O)C(C)(C)OC(C)(C)C1=O [Compound A-82] | 70% | 10% | 30% | 20% | 80% | 80% | 80% | 0%
CCc1cc(-c2ccccc2)ccc1C1=C(O)C(C)(C)OC(C)(C)C1=O [Compound A-96] | 0% | 0% | 20% | 10% | 80% | 80% | 90% | 10%
CCc1cc(-c2ccc(F)c(F)c2F)ccc1C1=C(O)C(C)(C)C(=O)C(C)(C)C1=O [Compound C-8] | 30% | 10% | 30% | 0% | 60% | 60% | 60% | 10%
CCc1cc(-c2ccc(F)c(OC)c2)ccc1C1=C(O)C(C)(C)C(=O)C(C)(C)C1=O [Compound C-3] | 10% | 10% | 10% | 0% | 60% | 30% | 70% | 50%
CCc1cc(-c2ccc(F)c(OC)c2)ccc1C1=C(O)C(C)(CC)OC(C)(CC)C1=O (centres unmarked) [Compound A-128] | 20% | 10% | 40% | 0% | 60% | 60% | 80% | 70%
CCc1cc(-c2ccc(F)c(F)c2)ccc1C1=C(O)C2(CCCC2)OC(C)(C)C1=O [Compound A-125] | 0% | 0% | 0% | 0% | 30% | 50% | 70% | 10%
